Experimental data: US20250154134A1, “COMPOUND AS FAK INHIBITOR AND USE THEREOF” (WIGEN BIOMEDICINE TECHNOLOGY (SHANGHAI) CO., LTD., priority 2022, published 2025)

Experiments:
[1] = molecular target: FAK recombinant protein (Homo sapiens (Human), UniProt Q05397); experiment: Inhibitory activity against FAK enzyme (HTRF, TK substrate); format: biochemical
Protocol: A compound serially diluted with DMSO was mixed with a FAK recombinant protein. After the mixture was left to stand at room temperature for 10 min, a biotin-labeled TK substrate (TK) and ATP were added. […] The inhibition percentage and IC50 of the compound were calculated compared to the DMSO control group.

[2] = system: PC3 cells; experiment: PC3 cell proliferation, 3D activity assay (3D culture, 14 days); format: cell-based, human; settings: Homo sapiens, PC-3, 336 h, read-out: 3D inhibitory activity against PC3 cells IC50
Protocol: (§1) 2D activity assay: 1200 PC3 cells were seeded in a 96-well plate. After overnight adherence culture, A compound serially diluted was added. […] The growth of the cells was evaluated, and the IC50 of the compound inhibiting cell growth was calculated. 3D activity assay: PC3 cells were seeded in a 96-well plate at 1200 cells/well, and 3D culture was performed. 14 days after a compound serially diluted was added, the growth of the cells was measured. The inhibition percentage and IC50 of the compound were calculated compared to the DMSO control group.

[3] = system: PC3 cells; experiment: PC3 cell proliferation, 2D activity assay (Cell Titer-Lumi, 72 h); format: cell-based, human; settings: Homo sapiens, PC-3, read-out: 2D inhibitory activity against PC3 cells IC50
Protocol: as §1

Sequence of FAK recombinant protein (Q05397 whole entry): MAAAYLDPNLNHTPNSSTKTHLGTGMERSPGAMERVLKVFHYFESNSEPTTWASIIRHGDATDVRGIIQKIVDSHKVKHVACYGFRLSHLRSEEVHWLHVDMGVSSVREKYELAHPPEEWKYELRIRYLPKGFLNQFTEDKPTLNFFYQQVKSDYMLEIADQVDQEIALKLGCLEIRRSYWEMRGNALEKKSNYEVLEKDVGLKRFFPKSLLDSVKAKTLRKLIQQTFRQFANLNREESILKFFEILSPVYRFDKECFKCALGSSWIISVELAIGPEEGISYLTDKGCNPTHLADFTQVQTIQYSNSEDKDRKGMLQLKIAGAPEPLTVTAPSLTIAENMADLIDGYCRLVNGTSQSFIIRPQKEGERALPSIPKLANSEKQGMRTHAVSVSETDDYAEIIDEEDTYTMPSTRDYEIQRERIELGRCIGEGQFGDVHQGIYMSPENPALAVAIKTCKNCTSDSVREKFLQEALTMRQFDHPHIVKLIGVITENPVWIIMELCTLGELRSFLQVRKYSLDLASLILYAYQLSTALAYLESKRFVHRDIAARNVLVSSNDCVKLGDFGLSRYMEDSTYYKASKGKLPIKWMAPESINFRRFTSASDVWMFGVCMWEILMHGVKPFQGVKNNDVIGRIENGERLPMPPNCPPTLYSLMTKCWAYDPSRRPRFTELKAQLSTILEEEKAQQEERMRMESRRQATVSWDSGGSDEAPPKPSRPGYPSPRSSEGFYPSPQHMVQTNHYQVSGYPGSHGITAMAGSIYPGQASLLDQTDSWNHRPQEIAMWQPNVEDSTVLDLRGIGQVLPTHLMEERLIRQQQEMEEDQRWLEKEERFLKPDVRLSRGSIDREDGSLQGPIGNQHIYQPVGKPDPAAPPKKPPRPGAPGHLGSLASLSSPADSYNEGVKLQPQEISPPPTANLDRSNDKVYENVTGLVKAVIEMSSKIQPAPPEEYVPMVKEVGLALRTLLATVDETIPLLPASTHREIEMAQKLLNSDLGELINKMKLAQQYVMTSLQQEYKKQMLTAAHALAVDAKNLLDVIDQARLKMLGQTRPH

SMILES | IC50 [1] | IC50 [2] | IC50 [3]
CCN1CCC2(CC1)CC(NC(=O)c1ccc(Nc3ncc(C(F)(F)F)c(Oc4cccc5c4C(=O)N(C)C54CC4)n3)c(OC)c1)C2 [Compound 46] | < 20 nM | 5 to 50 nM | > 2000 nM
[2H]C([2H])([2H])N1CCC2(CC1)CC(NC(=O)c1cc(OC)c(Nc3ncc(C(F)(F)F)c(Oc4cccc5c4C(=O)N(C)C54CC4)n3)cc1F)C2 [Compound 47] | < 20 nM | < 5 nM | > 2000 nM
CCN1CCC2(CC1)CC(NC(=O)c1cc(OC)c(Nc3ncc(C(F)(F)F)c(Oc4cccc5c4C(=O)N(C)C54CC4)n3)cc1F)C2 [Compound 48] | < 20 nM | 5 to 50 nM | > 2000 nM
C=Cc1cc(C(=O)NC2CCN(C)CC2)ccc1Nc1ncc(C(F)(F)F)c(Oc2cccc3c2C(=O)N(C)C32CC2)n1 [Compound 49] | < 20 nM | 5 to 50 nM | > 2000 nM
CCc1cc(C(=O)NC2CCN(C)CC2)ccc1Nc1ncc(C(F)(F)F)c(Oc2cccc3c2C(=O)N(C)C32CC2)n1 [Compound 50] | < 20 nM | 5 to 50 nM | > 2000 nM
CCc1cc(C(=O)NC2CCN(C)CC2)c(F)cc1Nc1ncc(C(F)(F)F)c(Oc2cccc3c2C(=O)N(C)C32CC2)n1 [Compound 51] | < 20 nM | 5 to 50 nM | > 2000 nM
CCc1cc(C(=O)NC2CC3(CCN(C)CC3)C2)ccc1Nc1ncc(C(F)(F)F)c(Oc2cccc3c2C(=O)N(C)C32CC2)n1 [Compound 52] | < 20 nM | < 5 nM | > 2000 nM
CN1CCC(NC(=O)c2ccc(Nc3ncc(C(F)(F)F)c(Oc4cccc5c4C(=O)N(C)C54CC4)n3)c(OC(F)(F)F)c2)CC1 [Compound 53] | < 20 nM | 5 to 50 nM | > 2000 nM
COc1cc(C(=O)NC2CCN(C)CC2)c(-c2cnn(C)c2)cc1Nc1ncc(C(F)(F)F)c(Oc2cccc3c2C(=O)N(C)C32CC2)n1 [Compound 54] | < 20 nM | < 5 nM | > 2000 nM
COc1cc(C(=O)N2CC3(CCN(C)CC3)C2)ccc1Nc1ncc(C(F)(F)F)c(Oc2cccc3c2C(=O)N(C)C32CC2)n1 [Compound 55] | < 20 nM | 5 to 50 nM | > 2000 nM
COc1cc(C(=O)N2CCC3(CCN(C)CC3)CC2)ccc1Nc1ncc(C(F)(F)F)c(Oc2cccc3c2C(=O)N(C)C32CC2)n1 [Compound 56] | < 20 nM | > 50 nM | > 2000 nM
COc1cc(C(=O)N2CCC3(CCN(C)C3)C2)ccc1Nc1ncc(C(F)(F)F)c(Oc2cccc3c2C(=O)N(C)C32CC2)n1 (stereo not drawn) [Compound 57] | < 20 nM | 5 to 50 nM | > 2000 nM
COc1cc(C(=O)N2CCC23CCN(C)CC3)ccc1Nc1ncc(C(F)(F)F)c(Oc2cccc3c2C(=O)N(C)C32CC2)n1 [Compound 59] | < 20 nM | 5 to 50 nM | > 2000 nM
COc1cc(C(=O)N2CCC3(CCN(C)CC3)C2)ccc1Nc1ncc(C(F)(F)F)c(Oc2cccc3c2C(=O)N(C)C32CC2)n1 [Compound 60] | < 20 nM | 5 to 50 nM | > 2000 nM
COc1cc(C(=O)N2CCC3(CCCN(C)C3)C2)ccc1Nc1ncc(C(F)(F)F)c(Oc2cccc3c2C(=O)N(C)C32CC2)n1 (stereo not drawn) [Compound 61] | < 20 nM | 5 to 50 nM | > 2000 nM
COc1cc(N2CCC3(CCN(C)CC3)C2=O)ccc1Nc1ncc(C(F)(F)F)c(Oc2cccc3c2C(=O)N(C)C32CC2)n1 [Compound 62] | < 20 nM | 5 to 50 nM | > 2000 nM

SMILES | IC50 [1] | IC50 [2] | IC50 [3]
COc1cc(N2CC3(CCN(C)CC3)CC2=O)ccc1Nc1ncc(C(F)(F)F)c(Oc2cccc3c2C(=O)N(C)C32CC2)n1 [Compound 63] | < 20 nM | < 5 nM | > 2000 nM
COc1cc(N2CC3(CCN(C)CC3)OC2=O)ccc1Nc1ncc(C(F)(F)F)c(Oc2cccc3c2C(=O)N(C)C32CC2)n1 [Compound 64] | < 20 nM | 5 to 50 nM | > 2000 nM
COc1cc(N2CC3(CCN(C)C3)OC2=O)ccc1Nc1ncc(C(F)(F)F)c(Oc2cccc3c2C(=O)N(C)C32CC2)n1 (stereo not drawn) [Compound 65] | < 20 nM | < 5 nM | > 2000 nM
COc1cc(N2CC3(CCC2=O)CCN(C)CC3)ccc1Nc1ncc(C(F)(F)F)c(Oc2cccc3c2C(=O)N(C)C32CC2)n1 [Compound 66] | < 20 nM | > 50 nM | > 2000 nM
COc1cc(N2CC3(CCN(C)C3)OCC2=O)ccc1Nc1ncc(C(F)(F)F)c(Oc2cccc3c2C(=O)N(C)C32CC2)n1 (stereo not drawn) [Compound 67] | < 20 nM | 5 to 50 nM | > 2000 nM
COc1cc(C2=NOC3(CCN(C)CC3)C2)ccc1Nc1ncc(C(F)(F)F)c(Oc2cccc3c2C(=O)N(C)C32CC2)n1 [Compound 68] | < 20 nM | > 50 nM | > 2000 nM
CN1C(=O)c2c(Oc3nc(Nc4ccc5c(c4)CNC5=O)ncc3C(F)(F)F)cccc2C12CC2 [Compound 70] | < 20 nM | > 50 nM | > 2000 nM
CN1CCC(N2C(=O)Cc3cc(Nc4ncc(C(F)(F)F)c(Oc5cccc6c5C(=O)N(C)C65CC5)n4)ccc32)CC1 [Compound 72] | < 20 nM | < 5 nM | > 2000 nM
COc1cc(N2CCNCC2)ccc1Nc1ncc(C(F)(F)F)c(Oc2cccc3c2C(=O)N(C)C32CC2)n1 [Compound 74, 4′-((2-((2-methoxy-4-(piperazin-1-yl)phenyl)amino)-5-(trifluoromethyl)pyrimidin-4-yl)oxy)-2′-methylspiro[cyclopropane-1,1′-isoindolin]-3′-one] | < 20 nM | 5 to 50 nM | > 2000 nM
COc1cc(N2CCN(CC(=O)N(C)C)CC2)ccc1Nc1ncc(C(F)(F)F)c(Oc2cccc3c2C(=O)N(C)C32CC2)n1 [Compound 75, 2-(4-(3-methoxy-4-((4-((2′-methyl-3′-oxospiro[cyclopropane-1,1′-isoindolin]-4′-yl)oxy)-5-(trifluoromethyl)pyrimidin-2-yl)amino)phenyl)piperazin-1-yl)-N,N-dimethylacetamide] | < 20 nM | < 5 nM | > 2000 nM
COCCN1CCN(c2ccc(Nc3ncc(C(F)(F)F)c(Oc4cccc5c4C(=O)N(C)C54CC4)n3)c(OC)c2)CC1 [Compound 76, 4′-((2-((2-methoxy-4-(4-(2-methoxyethyl)piperazin-1-yl)phenyl)amino)-5-(trifluoromethyl)pyrimidin-4-yl)oxy)-2′-methylspiro[cyclopropane-1,1′-isoindolin]-3′-one] | < 20 nM | < 5 nM | > 2000 nM
COc1cc(CN(C)C)ccc1Nc1ncc(C(F)(F)F)c(Oc2cccc3c2C(=O)N(C)C32CC2)n1 [Compound 80] | < 20 nM | 5 to 50 nM | > 2000 nM
COc1cc(CN2CCCC2)ccc1Nc1ncc(C(F)(F)F)c(Oc2cccc3c2C(=O)N(C)C32CC2)n1 [Compound 81] | < 20 nM | 5 to 50 nM | > 2000 nM
COc1cc(N2CCN(C)CC2=O)ccc1Nc1ncc(C(F)(F)F)c(Oc2cccc3c2C(=O)N(C)C32CC2)n1 [Compound 83] | < 20 nM | > 50 nM | > 2000 nM
COc1cc(C2CCN(C)CC2)ccc1Nc1ncc(C(F)(F)F)c(Oc2cccc3c2C(=O)N(C)C32CC2)n1 [Compound 84] | < 20 nM | < 5 nM | > 2000 nM
